Holding throughout (assay): growth of human tumour cells (NCI), 48 h
The subject of test [1] is SNB-75.
Test [2] concerns UACC-62.
Test [3] relates to SN12C.
Test [4] deals with ACHN.
The test system of test [5] is SK-MEL-2.
Test [6] concerns HCC 2998.
Test [7] relates to OVCAR-5.
The subject of test [8] is Malme-3M.
In test [9] the test system is UACC-257.
Test [10] relates to RPMI-8226.
Test [11] deals with SR.
Test [12] concerns HOP-62.
For test [13], the system named is SF-268.
For test [14], the system named is MOLT-4.
Test [15] has as its system NCI-H23.
For test [16], the system named is HL-60.
Test [17] deals with KM12.
Test [18] concerns MDA-MB-231.
The test system of test [19] is OVCAR-8.
For test [20], the system named is SK-MEL-5.

These results are taken from ChEMBL document CHEMBL1201862, “PubChem BioAssay data set” (2004).

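Each compound was tested at five concentrations against cells in 96-well plates for 48 hours. GI50 marks 50% less growth.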 Active and inactive are the calls of the source. No stated cut-off is given here; in the data, active = GI50 up to about 1.1 µM and inactive = higher.

`O=C1NC(=O)C2=C1CCC2O` (stereo not drawn): the GI50 in test [1], in test [2], in test [3], in [4], in test [5] and in test [6] was > 100 µM (inactive) throughout. The GI50 in [7], in test [8], in [9], in test [10], in test [11] and in test [12] was > 100 µM (inactive) throughout. In addition, the GI50 in test [13], in test [14], in test [15], in test [16], in test [17] and in test [18] was > 100 µM (inactive) each time. Further, the GI50 in test [19] was > 100 µM (inactive).
`Cn1ncc(NCCn2cnc3c2c(=O)n(C)c(=O)n3C)c(Cl)c1=O`: the GI50 in [2], in test [3], in test [4], in [20], in test [5] and in test [6] was > 100 µM (inactive) in each case. The GI50 in [7], in [8], in test [9], in test [10], in test [11] and in [12] was > 100 µM (inactive) in each case. Further, the GI50 in [13], in test [14], in test [15], in test [16], in [17] and in test [18] was > 100 µM (inactive) in each case. Further, in test [19], the GI50 was > 100 µM (inactive).
As to `COc1ccc(-c2c3c(n(C4OC(CO)C(O)C(O)C4O)c(=S)c2C#N)CCCC3)cc1` (stereo not drawn), the GI50 in [1] is 0.355 µM (active); in test [2], > 100 µM (inactive); in test [3], > 100 µM (inactive); in test [4], > 100 µM (inactive); in test [20], 62.2 µM (inactive); in [5] it was > 100 µM (inactive). Moreover, the GI50 in [6], in [7], in test [8], in test [9], in [11] and in test [12] was > 100 µM (inactive) throughout. Also, the GI50 in test [14] was 73.1 µM (inactive); in test [15], > 100 µM (inactive); in [16], 72.9 µM (inactive); in [17] it was > 100 µM (inactive); in [18], > 100 µM (inactive); in test [19], > 100 µM (inactive).
As for `O=C1CC2OCC=C3CN4CCC5(C(=O)O)C(N1)C2C3CC45` (stereo not drawn), the GI50 in test [1], in [2], in test [3], in test [4], in test [20] and in [5] was > 100 µM (inactive) each time. The GI50 in test [6], in test [7], in [8], in test [9], in test [11] and in test [12] was > 100 µM (inactive) throughout. Also, the GI50 in [13], in test [14], in test [15], in test [16], in test [17] and in test [18] was > 100 µM (inactive) in each case. The GI50 in [19] is > 100 µM (inactive).
For `COc1ccc(Nc2nc3ccc(C(F)(F)F)cc3nc2C(=O)O)cc1OC`, the GI50 in test [1] was 35.8 µM (inactive); in test [2] it was 21.7 µM (inactive); in [3], 34.9 µM (inactive); in [4], 35.2 µM (inactive); in [20], 20.1 µM (inactive); in test [5] it was 17.2 µM (inactive). Also, the GI50 in test [6] was 18.7 µM (inactive); in test [7], 47 µM (inactive); in test [8], 31.7 µM (inactive); in test [9], 30.6 µM (inactive); in test [11], 18.9 µM (inactive); in test [12], 25.2 µM (inactive). For the same compound, the GI50 is 34.1 µM (inactive) in test [13]; 16.1 µM (inactive) in [14]; 24.4 µM (inactive) in test [15]; 29.9 µM (inactive) in test [16]; 16.9 µM (inactive) in test [17]; 37.9 µM (inactive) in test [18]. Moreover, the GI50 in [19] is 23.2 µM (inactive).
Consider `O=[N+]([O-])c1cccc(-c2nc(-c3ccccc3)c(-c3ccccc3)[nH]2)c1`, for which the GI50 in test [2], in test [3], in [20], in test [5], in test [6] and in test [7] was > 100 µM (inactive) in each case. Besides, the GI50 in test [8], in [9], in test [10], in test [11], in test [12] and in test [13] was > 100 µM (inactive) throughout. Besides, the GI50 in test [14], in test [15], in test [16], in [18] and in test [19] was > 100 µM (inactive) in each case.
For `NC(=O)c1csc(C2OC(CO)C(O)C2O)n1` (stereo not drawn), the GI50 in test [2] was 42.6 µM (inactive); in test [3] it was 379 µM (inactive); in [4] it was 44.6 µM (inactive); in test [20], 96.8 µM (inactive); in test [5] it was 2340 µM (inactive); in [6], 467 µM (inactive). For the same compound, the GI50 is 436 µM (inactive) in test [7]; 1640 µM (inactive) in test [8]; 4400 µM (inactive) in [9]; 150 µM (inactive) in test [10]; > 31.6 µM (inactive) in test [11]; 90.8 µM (inactive) in test [12]. Further, the GI50 is 57.5 µM (inactive) in [13]; 5.56 µM (inactive) in [14]; 60.1 µM (inactive) in [15]; 8.95 µM (inactive) in test [16]; 48.4 µM (inactive) in test [17]; 84.9 µM (inactive) in test [18]. In addition, the GI50 in test [19] was 26.6 µM (inactive).
For `CCCCCCCN(CCCCCCC)CC(O)c1cc2ccccc2c2cc(Br)ccc12` (stereo not drawn), the GI50 in test [1] is 34.9 µM (inactive); in test [2], 20.4 µM (inactive); in test [3], 6.58 µM (inactive); in [4], 24.5 µM (inactive); in test [5], 33.1 µM (inactive); in [6], 15.2 µM (inactive). Also, the GI50 was > 100 µM (inactive) in test [7]; 19.5 µM (inactive) in [8]; 40.4 µM (inactive) in [9]; 24.9 µM (inactive) in test [10]; 22.6 µM (inactive) in [11]; 24.7 µM (inactive) in [12]. Further, the GI50 in test [13] was 19 µM (inactive); in test [14], 35.1 µM (inactive); in test [15], 36 µM (inactive); in test [16], 39.2 µM (inactive); in test [18] it was 5.98 µM (inactive); in test [19], 30.3 µM (inactive).
